Earlier results, collected in patent publication US20190151234A1, “STABLE LIQUID PHARMACEUTICAL FORMULATIONS OF BENDAMUSTINE” (priority 2016, published 2019).
Where two headings read alike, the source gives them in different places.

Conditions: for time stable: 0.25 mg/ml in 0.9% sodium chloride, Pharmazie 1994

Q: For `Cl.Cn1c(CCCC(=O)O)nc2cc(N(CCCl)CCCl)ccc21` [Bendamustine HCl, Bendamustine hydrochloride], which time stable (at 4° C.) is on record?
A: Its time stable is 5 days.

Q: What about the time stable (at 23° C.) of the same compound?
A: The time stable was 0.38 days.

Q: What about the “stability in aqueous solutions” value (aqueous solutions, per U.S. Pat. Nos. 8,609,707, 9,265,831) of the same compound?
A: The value was “limited to few hours”.
